Measurements as given in patent US20160367457A1, “CAPRYLOYL ALANINE ETHYLESTER AS A PENETRATION ENHANCER” (BASF SE, priority 2014, published 2016).
Read-outs that look alike come from different tables or passages of the source.

Key:
[1] = Penetration study with the enhancer applied directly to the skin (preincubation), Franz cells, radiolabeled markers from W/O formulation 1
Method: The aim of the present study was to determine the potency of three test substances (one being the closest prior art penetration enhancer) to act as skin permeation enhancer in cosmetic formulations: • Dimethyl isosorbide (DMI) a well-known penetration enhancer—used in cosmetics • Penetration Enhancer 1 (PE1)—capryloyl alanine ethylester • Penetration Enhancer 2 (PE2)—closest prior art molecule dodecyloyl alanine ethylester
The tests were performed by an independent test institute specialized in penetration testing. […] The skin was pre-incubated with the selected penetration enhancers (DMI, PE1 and PE2) and after incubation time of 30 min formulation was removed from the skin surface and formulation 1 spiked with radiolabeled ^3H-caffeine or ^3H-Vitamin E acetate was applied.
The impact of the three penetration enhancers on the skin absorption rate of caffeine and Vitamin E acetate (representative hydrophilic and lipophilic cosmetic actives, respectively) incorporated into a w/o formulation was investigated. Radiolabeled caffeine and Vitamin E acetate were used as markers. The in vitro skin permeation studies were performed with dermatomized human skin (approximately 500 μm in thickness) over a period of 24 h in triplicate. Samples from the acceptor compartment were taken at four sampling times (1, 3, 6 and 24 h) to screen the permeation enhancement effect.
The transdermal absorption of the test compounds ^3H-caffeine and ^3H-Vitamin E acetate was monitored by measuring the amount of radio labeled substances in the acceptor medium.
The test compounds were quantified by liquid scintillation counting.
In accordance to the SCCP Guidelines of the European Commission the excised human skin from surgery is an appropriate in vitro test system to simulate the permeation and penetration processes of a compound into and across human skin under in vivo conditions.
For the penetration study, the human skin (female abdomen skin) of one donor which was dermatomized to a thickness of 500±100 μm was used and tests were conducted in triplicate. Full-thickness skin was prepared from the skin biopsies and stored at −20° C. […] The skin was used immediately after thawing. Repeated freeze-thaw cycles were avoided.
Formulation 1 (without penetration enhancer) was spiked with radiolabeled ^3H-caffeine (specific activity: 60 Ci/mmol) and ^3H-Vitamin E acetate (specific activity: 50 Ci/mmol) and applied as control directly to the skin. The radio labeled samples were prepared as follows: Formulation 1 was spiked with either radiolabeled ^3H-caffeine or ^3H-Vitamin E acetate resulting in 2960000 cpm/50 μl or 1264557 cpm/50 μl, respectively. One of the three different penetration enhancers (DMI, PE1 and PE2) was applied to the skin prior to the application of the radioactively spiked W/O-formulation.
Krebs Ringer buffer (KRB, pH=7.4) was prepared according to an internal standard operation procedure. KRB was used as the acceptor medium for ^3H-caffeine. For ^3H-Vitamin E acetate, KRB supplemented with 2% bovine serum albumin (BSA) was used as the acceptor medium. Solutions of ^3H-caffeine and ^3H-Vitamin E acetate were used to validate the detection method and to assess linearity.
(§1) Permeation study was performed in four fold determination with the test and the reference item at human skin. For the transport studies the dermatomized skin was cut with a punch of 24 mm diameter and the thickness of the skin was measured at five points for each sample. Subsequently the skin pieces were fastened on cylindrical glass Franz cells which are employed as diffusion chambers. The lower (acceptor) chamber has a volume of approximately 12 ml, while the volume of the upper (donor) chamber is variable. The skin was inserted with the dermal layer facing downwards so that the skin's corneous layer is uppermost.

[2] = Penetration of the penetration enhancer itself through the skin; format: in vitro ADME
Source text: Furthermore, capryloyl-alanine ethylester can be metabolized in the skin thereby contributing to an improved toxicological profile.

[3] = Penetration study with 5% enhancer incorporated into W/O formulation
Method: as §1
PE2 (C12) which is solid at room temperature, was gently melted in a water bath (at 35 to 40° C.) and applied as liquid. After 30 min of incubation the liquid penetration enhancers were gently removed with cotton balls. In the case of PE2 which solidified on the skin, the solid film was removed with a pincer. Thereafter 50 μl of the formulations were applied at the surface of the skin. The acceptor medium was thermostated at 32° C. and continuously stirred at a rate of 400 rpm. The diffusion area of skin was approximately 1.8 cm^2. Permeation through the skin into the acceptor medium was monitored over a period of 24 hours. The acceptor medium was sampled at 4 different time points, after 1, 3, 6 and 24 hours, by withdrawing samples of 200 μl. After withdrawing a sample volume, the acceptor medium was refilled with pre-warmed KRB/KRB+2% BSA. The concentration of active ingredients in the acceptor chamber was corrected to take the dilution introduced by sampling into account. Taken samples were mixed with 210 μl or 500 μl of scintillation cocktail for at least 1 hour at 200 rpm and radioactivity measured by scintillation counting.
The described study was partly repeated in a similar experimental setup with three test substances to act as skin permeation enhancer when incorporated into the cosmetic formulation and not applied directly to the skin: • Dimethyl isosorbide (DMI) a well-known penetration enhancer—used in cosmetics • Penetration Enhancer 1 (PE1)—capryloyl alanine ethylester • Penetration Enhancer 2 (DGME)—prior art penetration enhancer Transcutol (Gattefossee), diethylene glycol mono ethyl ether
Formulation 1 (W/O formulation) served as a basic formulation and as a reference without any penetration enhancer. This time the skin was not pre-incubated with the selected penetration enhancers (DMI, PE1 and DGME), but 5% of the respective penetration enhancer was incorporated into formulation 1 and the resulting formulations were spiked once again with radiolabeled ^3H-caffeine or ^3H-Vitamin E acetate.

[4] = Hansen Solubility Parameters (HSP) distance to the stratum corneum; format: physicochemical
Source text: Capryloyl alanine ethyl ester turned out to have a smaller Hansen Solubility Parameters (HSP) distance to the stratum corneum than well-known and established references like DMI and ethyldiethylenglycol which indicates a good potential as skin penetration enhancer. Hansen Solubility Parameters are a key indicator for good partitioning into the stratum corneum provided the molecule is liquid at RT and has a small enough molecular volume.

[5] = after 24 hours, skin pre-incubated 30 min with 20 μl enhancer, then W/O formulation 1 with 3H-caffeine, n = 3
[6] = after 24 hours, versus reference without enhancer, preincubation, n = 3
[7] = at 24 hours, skin pre-incubated 30 min with 20 μl enhancer, then W/O formulation 1 with 3H-Vitamin E acetate, n = 3
[8] = at 24 hours, versus reference without enhancer, preincubation, n = 3
[9] = preincubation, 24 h detection time
[10] = preincubation, caffeine in w/o formulation, 24 h

Row | Effect on transport of caffeine compared to the reference formulation without any enhancer [3] | Average cumulative transport of 3H-caffeine ([3]; human, 24 h, 5 %, pH 7.4) [cpm/cm2] | Enhancement Ratio for 3H-caffeine ([3]; human, 24 h, 5 %, pH 7.4) | SMILES | Average cumulative transport of 3H-caffeine [1, 5] [dpm/cm^2] | Enhancement Ratio for 3H-caffeine [1, 6] | Average cumulative transport of 3H-Vitamin E acetate [1, 7] [dpm/cm^2] | Enhancement Ratio for 3H-Vitamin E acetate [1, 8] | Effect on transport of Vitamin E acetate [1, 9] | Caffeine transport compared to the control without any penetration enhancer [1, 10] | other results
1 | – | – | – | CCCCCCCCCCCC(=O)N[C@@H](C)C(=O)OCC [PE2, dodecyloyl alanine ethylester] | 262929 | 3.11 | 1814 | 0.70 | reduced the transport | approximately 3 times | –
2 | most effective permeation enhancer | 342.593 | 1.38 | CCCCCCCC(=O)N[C@@H](C)C(=O)OCC [PE1, capryloyl alanine ethylester] | – | – | – | – | – | – | Penetration of the enhancer itself through the skin compared with DMI [2]: lesser degree than DMI; Effect on transport of Vitamin E acetate [1]: only a slight penetration enhancing effect; Average cumulative transport of 3H-Vitamin E acetate ([1]; female, human, 24 h, pH 7.4): 2712 dpm/cm^2; Average cumulative transport of 3H-caffeine ([1]; female, human, 24 h, pH 7.4): 414024 dpm/cm^2; Caffeine transport compared to the control without any penetration enhancer ([1]; female, human, 24 h, pH 7.4): approximately 5 times; Enhancement Ratio for 3H-Vitamin E acetate ([1]; female, human, 24 h, pH 7.4): 1.06; Enhancement Ratio for 3H-caffeine ([1]; female, human, 24 h, pH 7.4): 4.89; Penetration of Vitamin E acetate with PE1 in comparison to PE2 ([1]; female, human, 24 h, pH 7.4): 1.5 fold; HSP distance to the stratum corneum compared with DMI and ethyldiethylenglycol [4]: smaller
3 | – | – | – | CO[C@H]1CO[C@H]2[C@@H]1OC[C@H]2OC [DMI, Dimethyl isosorbide] | 203120 | 2.40 | 2578 | 1.01 | only a slight penetration enhancing effect | around twice | Average cumulative transport of 3H-caffeine ([3]; at 24 hours, 5% enhancer incorporated into w/o formulation, n = 4): 212.435 cpm/cm2; Enhancement Ratio for 3H-caffeine ([3]; at 24 hours, 5% enhancer incorporated, versus reference formulation 1 without enhancer, n = 4): 0.86; Effect on transport of caffeine compared to the reference formulation without any enhancer ([3]; enhancer incorporated into W/O formulation): slightly decreased transport
4 | slightly enhanced the transport | 278.404 | 1.12 | CCOCCOCCO [DGME, diethylene glycol mono ethyl ether] | – | – | – | – | – | – | –
